# The supplement of paper PMC10307832
# Experiments:
# Experiment in all cases: relative viability (nuclei count vs DMSO), 5 days (fraction); higher = more cells survive
# Selisistat + Dasatinib = compound: C1CC(C2=C(C1)C3=C(N2)C=CC(=C3)Cl)C(=O)N [Selisistat] + Cc1nc(Nc2ncc(C(=O)Nc3c(C)cccc3Cl)s2)cc(N2CCN(CCO)CC2)n1 [Dasatinib] (partner 0.075 µM)
# Summary of the method: (§1)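 After 5 days of treatment, lung cancer cells in 1536-well plates were fixed and stained in a single step (final 0.05% Triton X-100, 1% formaldehyde, 1 ug/ml Hoechst) and their nuclei counted on 4× images. Treatment had been applied by pin tool the day after seeding as one drug alone or as a fixed anchor-drug dose with five library-drug doses (not always all listed) in √10 steps. Relative viability is the nuclei count of treated wells divided by that of vehicle wells, and values are medians of duplicate plates.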
# Selisistat + OSI-027 = compound: C1CC(C2=C(C1)C3=C(N2)C=CC(=C3)Cl)C(=O)N [Selisistat] + COc1cccc2cc(-c3nc([C@H]4CC[C@H](C(=O)O)CC4)n4ncnc(N)c34)[nH]c12 [OSI-027] (partner 0.5 µM)
# Summary of the method: as §1
# Selisistat + Tozasertib = compound: C1CC(C2=C(C1)C3=C(N2)C=CC(=C3)Cl)C(=O)N [Selisistat] + Cc1cc(Nc2cc(N3CCN(C)CC3)nc(Sc3ccc(NC(=O)C4CC4)cc3)n2)n[nH]1 [Tozasertib] (partner 0.1 µM)
# Summary of the method: as §1
# Serdemetan + Phenformin = compound: c1ccc2c(CCNc3ccc(Nc4ccncc4)cc3)c[nH]c2c1 [Serdemetan] + N=C(N)NC(=N)NCCc1ccccc1 [Phenformin] (partner 250 µM)
# Summary of the method: as §1
cell line,measurement,setting,value
UMC-11,relative viability,Selisistat + Dasatinib; first compound 0.4 µM,0.434
same,relative viability,Selisistat + Dasatinib; first compound 1.265 µM,0.477
same,relative viability,Selisistat + Dasatinib; first compound 4 µM,0.521
same,relative viability,Selisistat + Dasatinib; first compound 12.65 µM,0.476
same,relative viability,Selisistat + Dasatinib; first compound 40 µM,0.559
same,relative viability,Selisistat + OSI-027; first compound 0.4 µM,0.498
same,relative viability,Selisistat + OSI-027; first compound 1.265 µM,0.398
same,relative viability,Selisistat + OSI-027; first compound 4 µM,0.385
same,relative viability,Selisistat + OSI-027; first compound 12.65 µM,0.476
same,relative viability,Selisistat + OSI-027; first compound 40 µM,0.46
same,relative viability,Selisistat + Tozasertib; first compound 0.4 µM,0.212
same,relative viability,Selisistat + Tozasertib; first compound 1.265 µM,0.21
same,relative viability,Selisistat + Tozasertib; first compound 4 µM,0.209
same,relative viability,Selisistat + Tozasertib; first compound 12.65 µM,0.205
same,relative viability,Selisistat + Tozasertib; first compound 40 µM,0.212
same,relative viability,Serdemetan + Phenformin; first compound 0.04 µM,0.312
same,relative viability,Serdemetan + Phenformin; first compound 0.1265 µM,0.31
same,relative viability,Serdemetan + Phenformin; first compound 4 µM,0.321
